Laboratory results published in BindingDB's records for patent US11718613 (University of Michigan, 2023).

Molecular target: Induced myeloid leukemia cell differentiation protein Mcl-1 (Homo sapiens, UniProt Q07820)
Experiment: Bcl-2 and Bcl-xL Inhibition Assay
Protocol: Fluorescence polarization values were measured using the Infinite M-1000 plate reader (Tecan U.S., Research Triangle Park, N.C.) in Microfluor 1 96-well, black, round-bottom plates (Thermo Scientific). […] Plates were mixed and incubated at room temperature for 1 hour with gentle shaking to assure equilibrium. […] Equilibrium dissociation constants (Kd) were then calculated by fitting the sigmoidal dose-dependent FP increases as a function of protein concentrations using Graphpad Prism 5.0 software (Graphpad Software, San Diego, Calif.).

Induced myeloid leukemia cell differentiation protein Mcl-1, sequence (Q07820 whole entry): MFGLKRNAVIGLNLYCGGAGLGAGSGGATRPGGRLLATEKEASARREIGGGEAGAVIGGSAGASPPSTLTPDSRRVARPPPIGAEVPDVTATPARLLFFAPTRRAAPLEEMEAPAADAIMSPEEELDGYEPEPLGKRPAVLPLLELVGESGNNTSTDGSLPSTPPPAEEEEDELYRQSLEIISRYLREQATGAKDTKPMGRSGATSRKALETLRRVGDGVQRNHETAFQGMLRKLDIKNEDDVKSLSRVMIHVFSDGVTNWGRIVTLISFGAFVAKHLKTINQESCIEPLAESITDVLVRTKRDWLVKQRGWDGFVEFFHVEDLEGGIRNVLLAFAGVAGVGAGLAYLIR

O=C(NS(=O)(=O)c1ccc(NC[C@@H]2COCCO2)c([N+](=O)[O-])c1)c1ccc(N2CCN(CC3=C(c4ccc(Cl)cc4)CC4(CCC4)CC3)CC2)cc1Oc1cnc2[nH]ccc2c1 [US11718613, Compound 13]
IC50: > 5 µM
